Ends that are not written are not given here.
Assays:
human FP receptor = target: T1, human FP receptor (Homo sapiens, UniProt P43088); experiment: PGF2α-induced phosphoinositide hydrolysis (inositol phosphate synthesis) in HEK293 cells expressing FP receptor; type: cell-based; details: 1 μM PGF2α
T1 construct: expressed in transfected cells
Description: Both PCP-8 and -10 were tested in HEK293 cells expressing the human FP receptor. For this purpose, HEK 293 cells stably expressing human FP receptor were plated in 12-well plates in DMEM medium containing 10% fetal bovine serum, penicillin (10 U/ml) and streptomycin (10 μg/ml) and cultured in a humidified atmosphere containing 5% CO2 at 37° C. After the wells were 80% confluent, the cells were labeled with 2 μCi/ml of [^3H]-myo inositol overnight. Next day, the cells were washed once with PBS, and incubated in 0.5 ml of Kreb's buffer containing 10 mM LiCl and indicated concentrations of PCP peptides for 30 min. PGF2α at 1 μM was added to the cells and the incubation was carried out for an additional 30 min. The cells were solubilized with 0.1 N NaOH for 10 min and neutralized with 0.1 N formic acid. The lysates were collected and 1 ml each of methanol and chloroform were sequentially added and vortexed briefly. After centrifugation to separate the phases, inositol phosphates were separated by ion exchange chromatography as described below (Berridge, M. J. et al., 1983, Biochem. J. 212:473–482).
Briefly, the medium was discarded and the IP3 synthesis was stopped by adding 0.6 ml ice-cold methanol. The cells were scraped and collected into polypropylene tubes. Distilled water (0.5 ml) and chloroform (0.6 ml) were added and vigorously vortexed for 2 min. The phases were separated by centrifugation at 6000×g for 10 min. The aqueous phase was applied to AG-1X-8™ (Formate form) anion exchange columns (1 ml bed volume) and free inositol was eluted with 10 ml of water, followed by 60 mM ammonium formate in 0.1 M formic acid. Then, the inositol phosphates were eluted with 5 ml of 1.2 M ammonium formate in 0.1 M formic acid. After adding 3 volumes of scintillation cocktail (Optiphase-HiSafe III), the eluates were counted by scintillation spectrophotometry.
Data are expressed as fold stimulation of inositol phosphate synthesis by 1 μM PGF2α compared to the unstimulated controls. […] The half maximal inhibitory concentrations for both PCP-8 and -10 were slightly less than 100 μM.

FP receptor [1] = experiment: Porcine uterine strip ex vivo contraction assay (basal and PGF2α-induced); set-up: species or system pig; details: 100 μM peptide
Description: In ex vivo experiments using porcine uterine strips, the peptides were able to prevent both basal and PGF2α-induced contraction.
Uterine tissues from non-pregnant adult pigs were obtained from a local slaughter house and transported to the laboratory on ice. Uterine myometrial strips of approximately 1 cm in length were set up in organ baths containing Kreb's buffer equilibrated with 21% oxygen at 37° C. as we have described (Potvin, W. et al., 1990, Br. J. Pharmacol. 100:341–347; Varma, D. R. and Chemtob, S., 1993, J. Pharmacol. Expt. Ther. 265:1096–1104). Contractions were recorded by force transducers on Grass-polygraph. Strips were incubated with or without 100 μM peptides for 30 min before adding PGF2α in step-wise increments (10^−9 to 10^−6 M). Data were expressed as percentage increase over the basal level of average tension (g).
A graph of spontaneous uterine contractions (known to be dependent upon prostanoids, mainly PGF2α) in the absence and the presence of 100 μM PCP-8 are shown in FIG. 3A.

FP receptor [2] = target: T2, FP receptor (Sus scrofa, UniProt C6GAG8); experiment: Porcine eyecup model of ex vivo vasomotricity assay, PGF2α-induced constriction of retinal microvessels; set-up: species or system pig
T2 construct: from tissue; host or cells: eyecup / retinal microvessels of newborn pigs pretreated with ibuprofen
Source text: In order to see if the peptides could inhibit FP function using an ex vivo model, we chose porcine eyecup model, an ex vivo assay of vascular constriction in porcine retinas which we previously described and validated (Li et al., 1996 J. Pharmacol. Expt. Therapeut. 278: 370–377; Li et al., 1997 Am. J. Physiol. 273: R1283–90; Abran et al., 1997 Am. J. Physiol. 272: R995–1001). Since FP receptor densities in newborn vasculature are minimal due to down regulation by high levels of circulating prostaglandins in the perinatal period, the newborn pigs were treated with a prostaglandin synthetase blocker, ibuprofen (30 mg/Kg of bodyweight/8 h for 24 h) to increase the density of the receptors as well as their vasomotor effects. By inhibiting circulating prostaglandins, we were able to show potent inhibition of FP receptor-mediated second messenger synthesis as well as FP-mediated vascular constriction in this eyecup model.
(§1) To prepare eyecups, a circular incision was made 3–4 mm posterior to ora serrata to remove the […] segment and vitreous body with minimal handling of the retina. The remaining eyecup was fixed with pins to a wax base in a 20 ml tissue bath containing 20 ml of Kreb's buffer (pH 7.35–7.45), protease inhibitors, leupetin and aprotinin (10 μg/ml each), and equilibrated with 21% oxygen and 5% carbon dioxide at 37° C. The preparations were allowed to stabilize for 30 min. Peptides at 100 μM were added and incubation was continued for 30 min before the addition of PGF2α.
(§2) Cumulative concentration-responses of PGF2α, and TxA2 mimetic, U46619, (10^−10 to 10^−5 M) curves were constructed separately. To assess the reversibility of the antagonists, the eyecups were thoroughly washed (which would wash away the peptide) with incubation medium and concentration response curves for PGF2α were determined. The outer vessel diameter was recorded with a video camera mounted on a dissecting microscope (Zeiss M 400™) and the responses were quantified by a digital image analyzer (Sigma Scan Software, Jandel Scientific, Corte Madera, Calif.). Vascular diameter was recorded before and 10 min following the topical application of the agent.
^1Percent vasomotor response in the presence of 100 μM peptide is calculated as percent change in average vascular diameter produced by 10^−7 M PGF2α to the eyecup in the presence of the peptide compared to maximal constriction observed in the absence of the peptide.
^2Percent inhibition produced by each peptide is calculated as (100-percent vasomotor response).
Small letters indicate L-amino acids and capital letters indicate D-amino acids. I=isoleucine; L=leucine; G=glycine; H=histidine; R=Arginine; D=Aspartic acid; Y=Tyrosine; K=Lysine; A=Alanine; W=Tryptophan; E=Glutamic acid; F=Phenyl alanine; Q=Glutamine; N=Aspargine; P=Proline; S=Serine; X=Cyclohexyl alanine. Peptides were dissolved in DMSO freshly just before the experiment as 10 mM stocks and added to the eye cups 30 min before the addition of 10^−7 M PGF2α.
These peptides incorporate L- to D-amino acid changes, deletions, subtle variations in aromaticity, hydrogen bond donor status as opposed to ionic interactions and hydrophobicity.

TP receptor = experiment: Porcine eyecup model of ex vivo vasomotricity assay, constriction by TxA2 mimetic U46619; set-up: species or system pig; details: peptide 100 μM; 1 μM U46619 / dose response
Description: as §1, §2
The peptide PCP-10 had no effect on the basal tone (diameter of the microvessel) of the vessel (FIG. 2A; left panels). […]

T2 sequence (C6GAG8 1-362): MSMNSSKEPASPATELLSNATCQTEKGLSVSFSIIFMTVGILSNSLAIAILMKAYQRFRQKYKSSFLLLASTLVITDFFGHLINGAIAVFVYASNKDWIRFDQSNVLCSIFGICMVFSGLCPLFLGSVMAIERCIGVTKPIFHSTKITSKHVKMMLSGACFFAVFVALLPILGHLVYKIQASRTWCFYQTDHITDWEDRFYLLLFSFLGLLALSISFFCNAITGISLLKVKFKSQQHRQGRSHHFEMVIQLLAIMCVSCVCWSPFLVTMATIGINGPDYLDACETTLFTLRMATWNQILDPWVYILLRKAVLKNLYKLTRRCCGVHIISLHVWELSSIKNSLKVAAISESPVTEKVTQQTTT
T1 sequence (P43088 whole entry): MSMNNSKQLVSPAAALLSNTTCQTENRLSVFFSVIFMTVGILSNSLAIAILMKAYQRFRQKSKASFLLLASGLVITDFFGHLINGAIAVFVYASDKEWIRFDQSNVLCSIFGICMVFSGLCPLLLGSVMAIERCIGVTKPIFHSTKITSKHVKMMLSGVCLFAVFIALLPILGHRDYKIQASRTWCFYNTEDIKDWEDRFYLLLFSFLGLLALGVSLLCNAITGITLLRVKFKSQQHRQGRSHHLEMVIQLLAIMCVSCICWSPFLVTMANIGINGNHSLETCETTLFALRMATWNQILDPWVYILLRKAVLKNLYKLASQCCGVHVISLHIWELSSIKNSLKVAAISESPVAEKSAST

IC50 (human FP receptor; HEK293 cells stably expressing human FP receptor, read-out: half maximal inhibitory concentration, inositol phosphate synthesis): < 100 µM | inhibition of inositol phosphate synthesis initiated by PGF2α (human FP receptor; peptide at 100 μM): potently inhibited | reduction in uterine contraction (FP receptor [1]; all concentrations of PGF2α tested (10^−9 to 10^−6 M)): More than 60% | effect on spontaneous (basal) uterine contraction (FP receptor [1]; porcine uterine strips): reduced the force of basal contraction | Emax (FP receptor [2]; 100 μM peptide, 10^−7 M PGF2α, calculated as 100-percent vasomotor response, read-out: % inhibition of maximal response): 50% | effect on vasomotor responses in PGF2α dose response (FP receptor [2]; peptide 100 μM, even at concentrations exceeding 1 μM of PGF2α): abrogated the vasomotor responses | effect on vasoconstriction by TxA2 mimetic U46619 (TP receptor): no effect
Substance: ILGHRDYK-OH [PCP-8, ilghrdyk]

— patent US6984719B1, “Peptide antagonists of prostaglandin F2α receptor” (Hospital Sainte-Justine, priority 1998, dated 2006)
